Results from patent US20090162413A1 (priority 1998, published 2009).

Tests used:
[1] = release of zotarolimus from 15 mm BiodivYsio drug delivery stents (Example 5); assay type: physicochemical; details: 15 mm BiodivYsio stents
Experimental: To load the stents with drug, a solution of zotarolimus in ethanol at a concentration of 50 mg/ml was prepared and dispensed into twelve vials. Twelve individual polymer-coated stents were placed on fixtures designed to hold the stent in a vertical position and the stents were immersed vertically in the drug solution for five minutes. The stents and fixtures were removed from the vials and excess drug solution was blotted away by contacting the stents with an absorbent material. The stents were then allowed to dry in air for 30 minutes in an inverted vertical position.
The stents were removed from the fixtures, and each stent was placed into 50/50 acetonitrile/phosphate buffer (pH 5.1, 2.0 ml) and sonicated for one hour. The stents were removed from the solution and solutions were assayed for concentration of drug, which allowed calculation of the amount of drug originally on the stents. This method was independently shown to remove at least 95% of the drug from the stent coating. On average, the stents included 120±9 micrograms of drug.
The drug-loaded stents were placed on the fixtures and placed into 0.01 M phosphate buffer (pH=6.0, 1.9 ml) in individual vials. These samples were placed onto a Eberbach shaker set at low speed to provide back-and-forth agitation. To avoid approaching drug saturation in the buffer, the stents were transferred periodically to fresh buffer vials at the following points: 15, 30, 45, 60, 120, 135, 150, 165, 180, 240, 390 minutes. The dissolution buffer vials were assayed by HPLC for the drug concentration at the end of the drug release period studied. The data, represented as % cumulative release of the drug as a function of time, is shown in tabular form below (Table 7): […]

[2] = Phase 1 multiple escalating intravenous dose safety and pharmacokinetics, QD for 14 days (Example 7); assay type: in vivo, human; details: for median Cmax: predicted 14-day profile; for AUCτ/Dose / Cmax / Cmax/Dose: secondary predicted parameter; for Gamma: terminal elimination rate constant
Experimental: The present study was designed to evaluate the pharmacokinetics of zotarolimus following multiple dosing and to assess its safety while maximizing systemic exposure of healthy subjects. […] The study investigated pharmacokinetics and safety of zotarolimus in a Phase 1, multiple dose-escalation study following multiple intravenous infusions of 200, 400 and 800 μg doses, every day for fourteen consecutive days in healthy subjects.
Phase 1, multiple-escalating dose, double-blind, placebo-controlled, randomized study. Seventy-two subjects equally divided in 3 once-daily (QD) regimens (200, 400 or 800 μg QD with 16 active and 8 placebo per regimen) were administered a 60-minute QD IV infusion of zotarolimus for 14 consecutive days. Blood samples were collected over 24 hours following the first dose, before dosing on days 10, 11, 12, 13, and for 168 hours following Day 14 dose. Urine samples were collected over 24 hours on days 1, 14, 16, 18 and 20. Blood and urine zotarolimus concentrations were determined using a validated LC/MS/MS method. Pharmacokinetic parameters were determined by compartmental analysis. All Day-AUC0-∞ (area under blood concentration-time curve from time 0 to infinity including all 14 doses) was calculated. Dose and time-linearity and achievement of steady-state were evaluated. Fraction of drug eliminated in urine was determined.
Within each group, subjects were equally divided at the two study sites with each site enrolling 12 subjects (zotarolimus, eight subjects; placebo four subjects). The dosing scheme within each dose group is presented below:
Subjects received, under fasting conditions, a single 60-minute daily (QD) intravenous infusion of 200, 400, or 800 μg of zotarolimus or a matching intravenous infusion of placebo for Groups I, II and III, respectively on Study Days 1 through 14. The drug was administered via a syringe pump connected to a y-site device, which also infused 125-150 mL of 5% aqueous dextrose solution (D5W) over 60 minutes. The groups were dosed sequentially with at least 7 days separating the last dose of the previous group and the first dose of the next group during which time safety data from the previous group was analyzed. Dose escalation was dependent on the safety analysis of the lower dose group.
Five (5)-mL blood samples were collected in potassium EDTA containing tubes to evaluate zotarolimus concentrations prior to dosing (0 hour), and at 0.25, 0.5, 1.0, 1 hour 5 min, 1.25, 1.5, 2, 3, 4, 8, 12, 18 and 24 hours after starting infusion on Study Days 1 and 14. Additional samples were collected at 36, 48, 72, 96, 120, 144 and 168 hours after starting infusion on Study Day 14 and before dosing on Days 10, 11, 12 and 13. Urine was collected in containers without preservatives over the following intervals: 0 to 6, 6 to 12, 12 to 18 and 18 to 24 hours after starting the infusion on Study Days 1, 14, 16, 18 and 20.
Blood and urine concentrations of zotarolimus were determined using a validated liquid/liquid extraction HPLC tandem mass spectrometric method (LC-MS/MS). The lower limit of quantification of zotarolimus was 0.20 ng/mL using 0.3 mL blood sample and 0.50 ng/mL using 0.3 mL urine sample.
Safety was evaluated based on adverse event, physical examination, vital signs, ECG, injection site and laboratory tests assessments
The pharmacokinetic parameter values of zotarolimus were estimated for individual subjects using compartmental analysis. Data from the first dose on Study Day 1, the last dose on Study Day 14 and the trough concentrations on Study Days 10, 11, 12 and 13 were simultaneously modeled for each individual subject. […]

[3] = tested on: porcine coronary arteries (neointimal hyperplasia); assay: porcine coronary stent model, zotarolimus-eluting BiodivYsio PC stent vs polymer only stent, 28 days (Example 3); assay type: in vivo; details: stent eluting zotarolimus from a polymer, porcine coronary artery

## CO[C@H]1C[C@@H]2CC[C@@H](C)[C@@](O)(O2)C(=O)C(=O)N2CCCC[C@H]2C(=O)O[C@H]([C@H](C)C[C@@H]2CC[C@H](n3cnnn3)[C@H](OC)C2)CC(=O)[C@H](C)/C=C(\C)[C@@H](O)[C@@H](OC)C(=O)[C@H](C)C[C@H](C)/C=C/C=C/C=C/1C [zotarolimus]
[1]; 0.01 M phosphate buffer pH 6.0, 15 min
  % Cumulative Release of Drug: 0.3%
[1]; 0.01 M phosphate buffer pH 6.0, 30 min
  % Cumulative Release of Drug: 1.1%
[1]; 0.01 M phosphate buffer pH 6.0, 45 min
  % Cumulative Release of Drug: 2.1%
[1]; 0.01 M phosphate buffer pH 6.0, 60 min
  % Cumulative Release of Drug: 3.2%
[1]; 0.01 M phosphate buffer pH 6.0, 120 min
  % Cumulative Release of Drug: 4.3%
[1]; 0.01 M phosphate buffer pH 6.0, 135 min
  % Cumulative Release of Drug: 5.9%
[1]; 0.01 M phosphate buffer pH 6.0, 150 min
  % Cumulative Release of Drug: 6.3%
[1]; 0.01 M phosphate buffer pH 6.0, 165 min
  % Cumulative Release of Drug: 6.8%
[1]; 0.01 M phosphate buffer pH 6.0, 180 min
  % Cumulative Release of Drug: 7.4%
[1]; 0.01 M phosphate buffer pH 6.0, 240 min
  % Cumulative Release of Drug: 10.8%
[1]; 0.01 M phosphate buffer pH 6.0, 390 min
  % Cumulative Release of Drug: 13.2%
[2]; 200 μg QD IV infusion 14 days, compartmental, mean ± SD
  V1: 11.4 ± 1.7 L
[2]; 200 μg QD
  median Cmax: 11.4 ng/mL
[2]; 200 μg QD, mean ± SD
  AUCτ/Dose: 0.245 ± 0.031 ng·h/mL/µg
  Cmax: 11.2 ± 1.1 ng/mL
  Cmax/Dose: 0.056 ± 0.006 ng/mL/µg
  Gamma: 0.028 ± 0.005 h − 1
[2]; 400 μg QD IV infusion 14 days, compartmental, mean ± SD
  V1: 11.3 ± 1.0 L
[2]; 400 μg QD
  median Cmax: 22.1 ng/mL
[2]; 400 μg QD, mean ± SD
  AUCτ/Dose: 0.260 ± 0.047 ng·h/mL/µg
  Cmax: 21.4 ± 2.4 ng/mL
  Cmax/Dose: 0.053 ± 0.006 ng/mL/µg
  Gamma: 0.022 ± 0.003 h − 1
[2]; 800 μg QD IV infusion 14 days, compartmental, mean ± SD
  V1: 13.1 ± 3.2 L
[2]; 800 μg QD dose group, 24-hour period on Day 1 and Day 14
  fraction of the dose recovered in the urine as unchanged drug: approximately 0.1%
[2]; 800 μg QD
  median Cmax: 38.9 ng/mL
[2]; 800 μg QD, mean ± SD
  AUCτ/Dose: 0.224 ± 0.022 ng·h/mL/µg
  Cmax: 38.7 ± 6.3 ng/mL
  Cmax/Dose: 0.048 ± 0.008 ng/mL/µg
  Gamma: 0.023 ± 0.003 h − 1
[2]; 200-800 μg QD for 14 days
  evidence of immunosuppression, QTc prolongation or clinically significant adverse events: no subject displayed any clinical or biochemical evidence of immunosuppression, QTc prolongation or clinically significant adverse events
  most common treatment-emergent adverse events: pain, headache, injection site reaction, dry skin, abdominal pain, diarrhea and rash
  serious adverse events: no serious adverse events
[2]; IV for 14 consecutive days, 200-800 μg QD
  dose proportionality and time dependence of pharmacokinetics: dose proportional and time invariant
[2]; QD IV dosing, first trough samples on Day 10
  Steady state for QD dosing reached: ≤ 10 days
[2]; multiple doses of 200, 400, and 800 μg for 14 consecutive days
  tolerability: generally well tolerated
[2]; range of means over the studied regimens 200-800 μg QD
  V1: 11.3 to 13.1 L
[2]; within a 24-hour period post-dose, on average
  zotarolimus dose recovered in the urine: 0.1%
[3]
  neointimal hyperplasia: reduction in neointimal hyperplasia
